In brackets after ≈: the same amount, converted by molar mass.
How the values were obtained:
Type in all cases: functional
[1] = test system: Streptococcus pneumoniae; assay: In vitro minimum inhibitory concentration against Streptococcus pneumoniae ATCC 6303 after incubation in air at 35 degree C for 24 hr using agar dilution method; conditions: ATCC 6303, 24 h
[2] = test system: Enterococcus faecium; assay: In vitro minimum inhibitory concentration against vancomycin-resistant Enterococcus faecium 6A after incubation in air at 35 degree C for 24 hr using agar dilution method
[3] = test system: Staphylococcus aureus; assay: In vitro minimum inhibitory concentration against methicillin-resistant Staphylococcus aureus 562 after incubation in air at 35 degree C for 24 hr using agar dilution method
[4] = test system: Enterococcus faecalis; assay: In vitro minimum inhibitory concentration against Enterococcus faecalis ATCC 29212 after incubation in air at 35 degree C for 24 hr using agar dilution method; conditions: ATCC 29212, 24 h
[5] = test system: Staphylococcus aureus; assay: In vitro minimum inhibitory concentration against Staphylococcus aureus ATCC 25923 after incubation in air at 35 degree C for 24 hr using agar dilution method; conditions: ATCC 25923, 24 h
[6] = test system: Streptococcus pyogenes; assay: In vitro minimum inhibitory concentration against Streptococcus pyogenes ATCC 19615 after incubation in air at 35 degree C for 24 hr using agar dilution method; conditions: ATCC 19615, 24 h
[7] = test system: Staphylococcus aureus; assay: In vivo effective dose (on day 7-post-infection) against methicillin-resistant Staphylococcus aureus 562 infected mice upon peroral administration at 30 min and 4 hr post-infection; conditions: po
[8] = test system: Escherichia coli; assay: Minimum inhibitory concentration against Tol C pump deficient Escherichia coli strain
[9] = test system: Escherichia coli; assay: Minimum inhibitory concentration against […] AB pump deficient Escherichia coli strain
[10] = test system: Escherichia coli; assay: Minimum inhibitory concentration against wild-type Escherichia coli strain

Row | Compound | MIC [1] [µg/mL] | MIC [2] [µg/mL] | MIC [3] [µg/mL] | MIC [4] [µg/mL] | MIC [5] [µg/mL] | MIC [6] [µg/mL] | ED50 [7] [mg/kg] | MIC [8] [µg/mL] | MIC [9] [µg/mL] | MIC [10] [µg/mL]
1 | CC(=O)NC[C@H]1CN(c2ccc(N3CCN(Cc4ccoc4[N+](=O)[O-])CC3)c(F)c2)C(=O)O1 | 1 (≈ 2.17 µM) | 4 (≈ 8.67 µM) | 4 (≈ 8.67 µM) | 4 (≈ 8.67 µM) | 8 (≈ 17.3 µM) | 1 (≈ 2.17 µM) |  |  |  | 
2 | CC(=O)NC[C@H]1CN(c2ccc(N3CCN(Cc4ccc([N+](=O)[O-])n4C)CC3)c(F)c2)C(=O)O1 | 8 (≈ 16.9 µM) | 4 (≈ 8.43 µM) | 4 (≈ 8.43 µM) | 4 (≈ 8.43 µM) | 4 (≈ 8.43 µM) | 2 (≈ 4.22 µM) |  |  |  | 
3 | CC(=O)NC[C@H]1CN(c2ccc(N3CCN(Cc4ccc(COC(C)=O)o4)CC3)c(F)c2)C(=O)O1 | > 16 | > 16 | > 16 | > 16 | > 16 | > 16 |  |  |  | 
4 | CC(=O)NC[C@H]1CN(c2ccc(N3C[C@@H]4[C@H](C3)[C@H]4N(C)c3ccc([N+](=O)[O-])o3)c(F)c2)C(=O)O1 | 2 (≈ 4.22 µM) | 2 (≈ 4.22 µM) |  | 1 (≈ 2.11 µM) | 2 (≈ 4.22 µM) | 0.06 (≈ 0.127 µM) |  |  |  | 
5 | CC(=O)NC[C@H]1CN(c2ccc(N3CCN(Cc4ccc(C)o4)CC3)c(F)c2)C(=O)O1 | > 16 | > 16 | > 16 | > 16 | > 16 | > 16 |  |  |  | 
6 | CC(=O)NC[C@H]1CN(c2ccc(N3CCN(Cc4ccc(/C=N/N)o4)CC3)c(F)c2)C(=O)O1 | 8 (≈ 17.4 µM) | 8 (≈ 17.4 µM) | 1 (≈ 2.18 µM) | 8 (≈ 17.4 µM) | 2 (≈ 4.36 µM) | 8 (≈ 17.4 µM) |  |  |  | 
7 | CC(=O)NC[C@H]1CN(c2ccc(N3CCN(Cc4ccc(Cl)o4)CC3)c(F)c2)C(=O)O1 | > 16 | > 16 | > 16 | > 16 | > 16 | > 16 |  |  |  | 
8 | CC(=O)NC[C@H]1CN(c2ccc(N3CCN(Cc4ccc(C#N)o4)CC3)c(F)c2)C(=O)O1 | 16 (≈ 36.2 µM) | 16 (≈ 36.2 µM) | 16 (≈ 36.2 µM) | 16 (≈ 36.2 µM) | 16 (≈ 36.2 µM) | 16 (≈ 36.2 µM) |  |  |  | 
9 | CC(=O)NC[C@H]1CN(c2ccc(N3CCN(Cc4ccco4)CC3)c(F)c2)C(=O)O1 | 8 (≈ 19.2 µM) | 8 (≈ 19.2 µM) | 8 (≈ 19.2 µM) | 8 (≈ 19.2 µM) | 8 (≈ 19.2 µM) | 4 (≈ 9.6 µM) | > 25 |  |  | 
10 | CC(=O)NC[C@H]1CN(c2ccc(N3CCN(Cc4ccc(C=O)o4)CC3)c(F)c2)C(=O)O1 | 4 (≈ 9 µM) | 8 (≈ 18 µM) | 1 (≈ 2.25 µM) | 8 (≈ 18 µM) | 1 (≈ 2.25 µM) | 8 (≈ 18 µM) | > 25 |  |  | 
11 | CC(=O)NC[C@H]1CN(c2ccc(N3CCN(Cc4ccc([N+](=O)[O-])o4)CC3C)c(F)c2)C(=O)O1 (stereo partly drawn) | 8 (≈ 16.8 µM) | 4 (≈ 8.41 µM) | 2 (≈ 4.21 µM) | 4 (≈ 8.41 µM) | 4 (≈ 8.41 µM) | 4 (≈ 8.41 µM) |  |  |  | 
12 | CC(=O)NC[C@H]1CN(c2ccc(N3CCC(N(C)c4ccc([N+](=O)[O-])o4)CC3)c(F)c2)C(=O)O1 | 0.5 (≈ 1.05 µM) | 0.5 (≈ 1.05 µM) | 0.5 (≈ 1.05 µM) | 0.25 (≈ 0.526 µM) | 1 (≈ 2.1 µM) | 0.125 (≈ 0.263 µM) | 7.43 |  |  | 
13 | CC(=O)NC[C@H]1CN(c2ccc(N3CCC(Nc4ccc([N+](=O)[O-])o4)CC3)c(F)c2)C(=O)O1 | 2 (≈ 4.33 µM) | 0.5 (≈ 1.08 µM) | 1 (≈ 2.17 µM) | 0.5 (≈ 1.08 µM) | 1 (≈ 2.17 µM) | 0.25 (≈ 0.542 µM) |  |  |  | 
14 | CC(=O)NC[C@H]1CN(c2ccc(N3CCN(Cc4ccc([N+](=O)[O-])[nH]4)CC3)c(F)c2)C(=O)O1 | 4 (≈ 8.69 µM) | 4 (≈ 8.69 µM) | 4 (≈ 8.69 µM) | 4 (≈ 8.69 µM) | 4 (≈ 8.69 µM) | 1 (≈ 2.17 µM) |  |  |  | 
15 | CC(=O)NC[C@H]1CN(c2ccc(N3CCC(N(C)c4ccc([N+](=O)[O-])o4)C(C)C3)c(F)c2)C(=O)O1 (stereo partly drawn) | > 16 | > 16 | > 16 | > 16 | > 16 | > 16 |  |  |  | 
16 | CC(=O)NC[C@H]1CN(c2ccc(N3CCN(Cc4ccc(/C=N/O)o4)CC3)c(F)c2)C(=O)O1 | 8 (≈ 17.4 µM) | 8 (≈ 17.4 µM) | 2 (≈ 4.35 µM) | 16 (≈ 34.8 µM) | 2 (≈ 4.35 µM) | 4 (≈ 8.71 µM) |  |  |  | 
17 | CCOC(=O)c1ccc(CN2CCN(c3ccc(N4C[C@H](CNC(C)=O)OC4=O)cc3F)CC2)o1 | > 16 | > 16 | > 16 | > 16 | > 16 | > 16 |  |  |  | 
18 | CC(=O)NC[C@H]1CN(c2ccc(N3CCC(N(C(C)=O)c4ccc([N+](=O)[O-])o4)CC3)c(F)c2)C(=O)O1 | > 16 | > 16 | > 16 | > 16 | > 16 | > 16 |  |  |  | 
19 | CC(=O)NC[C@H]1CN(c2ccc(N3CCN(Cc4ccc(C(=O)O)o4)CC3)c(F)c2)C(=O)O1 | > 16 | > 16 | > 16 | > 16 | > 16 | > 16 |  |  |  | 
20 | CC(=O)NC[C@H]1CN(c2ccc(N3CCN(Cc4ccc(CO)o4)CC3)c(F)c2)C(=O)O1 | > 16 | > 16 | > 16 | > 16 | > 16 | > 16 |  |  |  | 
21 | CC(=O)NC[C@H]1CN(c2ccc(N3CCN(Cc4ccc([N+](=O)[O-])s4)CC3)c(F)c2)C(=O)O1 | 8 (≈ 16.8 µM) | 8 (≈ 16.8 µM) | 8 (≈ 16.8 µM) | 8 (≈ 16.8 µM) | 8 (≈ 16.8 µM) | 1 (≈ 2.09 µM) |  |  |  | 
22 | CC(=O)NC[C@H]1CN(c2ccc(N3C[C@@H]4[C@@H](CN(C)c5ccc([N+](=O)[O-])o5)[C@@H]4C3)c(F)c2)C(=O)O1 |  | 2 (≈ 4.1 µM) | 1 (≈ 2.05 µM) | 4 (≈ 8.21 µM) | 2 (≈ 4.1 µM) | 0.125 (≈ 0.256 µM) | > 25 |  |  | 
23 | CC(=O)NC[C@H]1CN(c2ccc(N3CCN(Cc4ccc(Br)o4)CC3)c(F)c2)C(=O)O1 | > 16 | > 16 | > 16 | > 16 | > 16 | > 16 |  |  |  | 
24 | CC(=O)NC[C@H]1CN(c2ccc(N3C[C@@H](C)N(Cc4ccc([N+](=O)[O-])o4)[C@@H](C)C3)c(F)c2)C(=O)O1 | 16 (≈ 32.7 µM) | 8 (≈ 16.3 µM) | 8 (≈ 16.3 µM) | 8 (≈ 16.3 µM) | 16 (≈ 32.7 µM) | 16 (≈ 32.7 µM) |  |  |  | 
25 | CC(=O)NC[C@H]1CN(c2ccc(N3CCCN(Cc4ccc([N+](=O)[O-])o4)CC3)c(F)c2)C(=O)O1.Cl | 1 | 2 | 1 | 2 | 2 | 1 | > 25 |  |  | 
26 | CC(=O)NC[C@H]1CN(c2ccc(N3CCOCC3)c(F)c2)C(=O)O1 [LINEZOLID] |  | 2 (≈ 5.93 µM) |  |  |  | 2 (≈ 5.93 µM) | 5.6 |  |  | 
27 | CC(=O)NC[C@H]1CN(c2ccc(N3CCN(Cc4ccc([N+](=O)[O-])o4)CC3)c(F)c2)C(=O)O1.Cl [RANBEZOLID CHLORIDE] | 0.125 | 2 | 1 | 2 | 1 | 0.125 |  | 2 | 2 | ≤ 16
28 | CN[C@H](CC(C)C)C(=O)N[C@H]1C(=O)N[C@@H](CC(N)=O)C(=O)N[C@H]2C(=O)N[C@H]3C(=O)N[C@H](C(=O)N[C@H](C(=O)O)c4cc(O)cc(O)c4-c4cc3ccc4O)[C@H](O)c3ccc(c(Cl)c3)Oc3cc2cc(c3O[C@@H]2O[C@H](CO)[C@@H](O)[C@H](O)[C@H]2O[C@H]2C[C@](C)(N)[C@H](O)[C@H](C)O2)Oc2ccc(cc2Cl)[C@H]1O [VANCOMYCIN] | 0.5 (≈ 0.345 µM) |  |  | > 16 |  |  | 8.8 |  |  | 

Reference: ChEMBL document CHEMBL1141053, “Synthesis and SAR of novel oxazolidinones: discovery of ranbezolid” (2005)
